Measurements published in patent publication US20230390315A1, “COMPOSITIONS AND METHODS FOR TREATING ISCHEMIC CONDITIONS” (The Regents of the University of California, priority 2020, published 2023).

Assays:
[1] = system: ARPE-19 RPE cells; assay: Human RPE cell proliferation assay; format: cell-based
Protocol: Proliferation assays with fibroblasts were done in low-glucose DMEM containing 1% FBS, with or without 10 ng/ml bFGF, or 100 ng/ml human EGF and the assay was ended at day 3. ARPE-19 cells were gently lifted with 0.025% trypsin and plated in RtEGM media (Clonetics) containing 2% FBS, L-glutamine, human bFGF and GA-1000. Once cells were attached to plates, serum-free RtEGM media was used to maintain the cultures. For proliferation assays, 1500 human RPE cells were plated into 96-well plates in low-glucose DMEM containing 1% FBS. A673, U87MG, Calu6 and AML12 cells were grown until confluent and were then harvested and re-suspended in appropriate assay media. For proliferation assays, cells were plated at the density of 1000-2000 cells/well in low-glucose DMEM containing 5% FBS or otherwise stated. Bovine pituitary cells (pituitary folliculostellate cells) were isolated as previously described. For proliferation assays with human epidermal keratinocytes, human DMVECs and human dermal fibroblast cells, 1000 cells/well were plated in low-glucose DMEM containing 1% FBS with or without various growth factors. The assay was ended at day 3 for bovine pituitary cells and at day 4 for all the other cell types. […] Four days later, tumor cell growth was measured by the MTS assay (Promega, Madison, WI), a colorimetric assay that measures metabolic activity of viable cells. […]

[2] = system: VEGFR2; assay: VEGF/VEGFR2 expression, cell surface amount and VEGFR2 activation in BCECs; format: cell-based, bovine
Protocol: Cells were allowed to reach 80% confluency in 12-well plates. […] At various time points, plates were taken out of the incubator and kept on ice. Cell monolayers were first washed once with ice-cold PBS before lysis with 250 μl of Pierce RIPA buffer (ThermoFisher Scientific, Rockford, IL) or use 50 mM Tris-HCl (pH 7.6), 150 mM NaCl, 10% Glycerol, 1% NP-40 containing protease/Phosphatase inhibitor cocktail (100×) (Cell signaling, #5872). Lysates were collected and mixed with 4×Bolt LDS Sample Buffer (Novex, Carlsbad, CA) in the presence of Halt protease inhibitors and phosphatase inhibitor cocktail (ThermoFisher scientific, #NP0007). The samples were subjected to SDS-PAGE (Bolt 4-12% Bis-Tris Plus, Invitrogen) using Bolt MES SDS running buffer or NuPAGE 3-8% Tris-Acetate gel using Tris-Acetate SDS running buffer (Novex). HUVECs (passage 6-8) were plated in EBM-2 basal medium (Lonza) with 0.2% FBS. […] Equal amounts of protein lysates were analyzed by SDS-PAGE and blotted with the indicated antibodies. Proteins were transferred using Tris-Glycine buffer with 20% Methanol (Proteonomics grade) (Apex BioResearch Products). Membranes were first incubated with 5% milk in TBST, pH 7.6 (TEKnova, Hollister, CA), followed by blotting with primary and secondary antibodies. ECL anti-rabbit IgG, horseradish peroxidase linked whole antibody from donkey or sheep anti-mouse were obtained from GE Healthcare (UK limited). SuperSignal West Dura Extended Duration substrate was from ThermoFisher Scientific. In some cases, the same PVDF membranes were stripped by 8-min incubation in the Restore Plus Western Blot Stripping Buffer (ThermoFisher Scientific) to show total specific protein expression, followed by second stripping for β-actin expression. BCECs were plated in 10 cm cell culture dishes 3 days prior to the cell surface protein isolation. Cells were washed three times with Dulbecco's PBS with CaCl2 and MgCl2, followed by a 30 min incubation with EZ-Link Sulfo-NHS-SS-Biotin (Pierce, Rockford, IL, USA; 0.5 mg/ml in Dulbecco) on ice. […] For cell lysis 500 […]1 of lysis buffer (2% NP-40, 1% Triton X-100, 10% glycerol, 100 uM oxidized glutathione, EDTA free protease inhibitor tablet (Roche, Mannheim, Germany) in PBS was added to the cells. Lysed cell extracts were scraped off the plates and transferred to an Eppendorf tube followed by incubation on ice on a shaker for 30 mins. The cell extracts were incubated with 30 U of DNase (22° C. 50 mins, Roche, Mannheim, Germany) and centrifuged for 20 mins (20,800×g, at 4° C.) to pellet the insoluble material. The protein concentration of the supernatants was determined. Equal amounts of protein ( 2 mg) from each extract were used for cell surface protein isolation. […]

## N[C@H](C=O)[C@@H](O)[C@H](O)[C@H](O)CO [ManN, 2-Amino-2-deoxy-D-mannose]
[1]; 5 mM level of ManN
  cellular toxicity, sensitivity among cell types: least sensitive
[1]; alone or in combination with growth factors
  proliferation of human RPEs: no increases in proliferation
[2]
  amount of VEGFR2 on cell surface (biotinylation): no changes in the amount of VEGFR2 on cell surface
[2]; 4 hours (gene) or 24 hours (protein)
  transcription of VEGF, VEGFR2, GLUT1 & 4 and total VEGFR2 protein expression: neither transcription of VEGF, VEGFR2 and GLUT1 & 4 nor total VEGFR2 protein expression was significantly changed
[2]; ManN pre-treated cells
  VEGFR2 phosphorylation in response to VEGF: decreased
[2]; after ManN addition
  ligand-independent VEGFR2 activation: No ligand-independent VEGFR2 activation occurred
